Data taken from patent US6057366A (priority 1994, dated 2000).
“Also recorded” adds a separate entry of the source.

Key:
[1] = tested on: avocado lipoxygenase; settings: declines during ripening of the fruit; cited from earlier work
[2] = tested on: lactating mammary gland; type: in vivo; settings: even as high single dose 200 mg/kg, mouse
[3] = tested on: lactating mammary gland; settings: Craigmill et al. (1989), cited from earlier work
[4] = tested on: human breast cancer cell lines (MCF7, ZR75, T47D); test: Neutral red dye uptake assay (in vitro cytotoxicity), human breast cancer cell lines; type: cell-based; settings: 10 to 0.3125 μg/ml, 20 hours incubation, average of 2 experiments, actual concentration reaching the cells unknown
Description: For purposes of using a rapid, simple and cheap method of pre-screening cytotoxicity, we chose the neutral red dye uptake procedure to test such activity in the given extract.
Human breast and ovarian cancer cell lines were maintained in RPMI 1640 culture medium supplemented with 10% fetal calf serum, 2 mm L-glutamine and penicillin, streptomycin and fungizone. Cells were passaged by trypsinization and plated in 96-well flat-bottomed tissue culture plates at 5×10^4 cells per well. Cells were preincubated for 6 hours at 37° C., 5% CO2 in a humidified atmosphere to allow cell attachment prior to addition of the extract.
Persin was dissolved in DMF (supplied by National Research Centre for Environmental Toxicology) to give a stock solution of 100 μg/ml. […] 10 μl of the solution was added to quadruplicate wells in doubling dilution from 10 μg/ml to 0.3125 μg/ml (final concentration). Control wells had tissue culture diluent added only. DMF controls had DMF added to a final concentration of 0.1%. The extract was incubated with the cells for 20 hours before being gently aspirated. Cells were washed twice with Hanks Balanced Salt Solution (HBSS) with centrifugation in special microtiter plate carriers between washes so as not to lose viable but dislodged cells.
Neutral red was prepared fresh before each experiment from a 1% stock solution. One hundred microtiters of working solution (67 μg/ml in HBSS) was added to all wells and incubation continued for a further 4 hours. Non-absorbed dye was removed by washing cells as described above.
Absorbed dye was extracted from cells by adding 100 μl of 50% ethanol in 1% acetic acid.
Plates were mixed thoroughly to allow full extraction of the dye and were then read in a Multiscan plate reader at 540 nm. Dose response curves were constructed by plotting the percentage of untreated/control well OD540 versus concentration of extract. Individual extract concentration points were tested in quadruplicate and the results presented are averaged from 2 separate experiments. […]

[5] = tested on: human colon cancer cell line (LS174T); test: Neutral red dye uptake assay (in vitro cytotoxicity), human colon cancer cell line; type: cell-based; settings: any dose tested (10 to 0.3125 μg/ml), 20 hours
[6] = tested on: lactating mammary gland; type: in vivo, mouse; settings: for activity in inducing widespread lactating mammary gland necrosis: 50-100 mg/kg body weight
Description: (§1) White lactating female Quackenbush mice of body weight 40-50 g were used. All animal experiments followed the code of practice for the care and use of animals for experimental purposes as outlined by the Australian National Health and Medical Research Council. For the toxicity testing of leaf and crude extracts, on the fourth day after parturition the litter of each mouse was reduced to eight pups and weights of dam and litter respectively recorded. The dam was then separated from the litter and fasted overnight. On the following day and for 24 hours thereafter, the dam was offered 20 g of powdered commercial rodent diet containing 5% of powdered freeze-dried avocado leaf. In the case of preliminary organic extracts of the leaf, equivalent quantities were added to 20 g of powdered rodent diet, mixed thoroughly and the solvent evaporated under reduced pressure. After 24 hours on the medicated diet, regular untreated cubed diet was provided and the litter restored to the dam. At later stages of the isolation and purification of the active principle, the compound was suspended in up to 1 ml of 1% Tween 80 or Intralipid and given as a single dose by gavage on days 4 to 5 of lactation without prior fasting of the dam and simultaneous temporary removal of her pups. The dam and her pups were weighed daily. […] From 3 to 7 days after exposure to the avocado supplemented diet, or gavage of the purified extracts as the case may be, the dam was euthanased with carbon dioxide and all mammary glands and heart removed and fixed in buffered neutral 10% formalin for pathological examination.
The R and S isomers of persin were tested for activity required to induce widespread lactating mammary gland necrosis at the dose rate of 50-100 mg/kg body weight.

[7] = Pathological effects on the myocardium after oral dosing; type: in vivo, mouse; settings: myocardium; mouse, oral; read-out: dose above which necrosis of myocardial fibres may occur
Description: as §1

[8] = tested on: myocardium; test: as above; type: in vivo, mouse
Description: as §1

[9] = tested on: silkworm larvae; settings: isolated from avocado leaves; Chang et al. 1975; cited from earlier work
[10] = tested on: Colletotrichum gloeosporioides; settings: cited from earlier work
[11] = tested on: heat and lactating mammary gland of the mouse; settings: Sani et al., 1993 symposium; cited from earlier work

## Oc1cc(O)c2c(c1)O[C@H](c1ccc(O)c(O)c1)[C@H](O)C2 [epicatechin]
[1]
  inhibition of avocado lipoxygenase: inhibitor of the enzyme

## CCCCC/C=C\C/C=C\CCCCCCCC(=O)C[C@H](O)COC(C)=O [S isomer, (2S)-2-hydroxy-4-oxo-henicosa-12Z,15Z-dien-1-yl acetate]
[2]
  activity in inducing widespread lactating mammary gland necrosis (high single dose): inactive

## COc1cc2c(c(OC)c1OC)-c1ccc(OC)c(=O)cc1[C@@H](NC(C)=O)CC2 [colchicine]
[3]
  mechanism: microtubule inhibition: microtubule inhibitors
[3]; locally applied to the acinar cells
  effect on milk ejection from secretory acinar cells: prevent ejection of milk from the cells into the acinar lumen

## CCCCCCCCCCCCCCCCCC(=O)C[C@@H](O)COC(C)=O [RMC328, (R)-2-Hydroxy-4-oxohenicosan-1-yl Acetate]
[4]
  sensitivity of human breast cancer cell lines relative to other cell lines (neutral red uptake): the three human breast cancer cell lines showing the greatest sensitivity to the compounds

## CCCCC/C=C\C/C=C\CCCCCCCC(=O)C[C@@H](O)COC(C)=O [persin, (+)-(Z,Z)-1-acetyloxy-2-hydroxy-12,15-heneicosadien-4-one]
[4]
  sensitivity of human breast cancer cell lines relative to other cell lines (neutral red uptake): Three human breast cancer cell lines showed greater sensitivity to the extract than other cell lines tested; also recorded: the three human breast cancer cell lines showing the greatest sensitivity to the compounds
[4]; listed as extract
  sensitivity of human breast cancer cell lines relative to other cell lines (neutral red uptake): the human breast cancer cell lines were more sensitive to the extract than the other cell lines
[5]
  effect on human colon cancer cell line (neutral red uptake): not affected by the extract at any dose tested
[6]; mouse
  activity in inducing widespread lactating mammary gland necrosis: active
[6]; 72 hours after single oral dose of 60 mg/kg on 4th day of lactation
  mammary epithelium histology (FIG. 9A): extensive coagulative necrosis of the secretory tissues
[6]; mouse, single oral dose
  single oral dose required to induce widespread, non-fatal injury to the lactating mammary gland: 60 to 100 mg/kg
[6]; mouse, single oral dose, 60 to 100 mg/kg
  character of the mammary gland injury: interstitial oedema, congestion and haemorrhage and coagulative necrosis with desquamation of the acinar epithelial cells thereby preventing lactation
[6]; oral dosing
  inhibition of milk secretion: inhibition of milk secretion through such a necrogenic action on the secretory epithelium
[6]; present studies
  damage to lactating mammary gland: causes damage both to the lactating mammary gland and the heart muscle
[7]
  NOAEL: > 100 mg/kg
[8]; 100 mg/kg orally, seven days previously
  myocardium histology (FIG. 9C): marked atrophy of muscle fibres (M) interstitial haemorrhage (H) and early scar tissue formation (S)
[8]; doses above 100 mg/kg, animals surviving for seven days
  myocardial fibrosis: areas of myocardial fibrosis can be observed in animals surviving for seven days
[8]; doses above 100 mg/kg, more severely affected animals
  hydrothorax / pulmonary oedema: Hydrothoraz and/or pulmonary oedema may be present in more severly affected animals
[8]; present studies
  damage to heart muscle: causes damage both to the lactating mammary gland and the heart muscle
[9]
  growth of silkworm larvae: inhibited the growth of silkworm larvae
[10]; isolated from avocado fruit peel or whole fruits, refs (ii) to (xiii)
  antifungal activity: exhibits antifungal activity in relation to the fungus Colletotrichum gloeosporioides
[10]; natural compound, reference (v)
  loss of activity on double bond oxidation: loses activity due to double bond oxidation
[11]
  toxicity for heart and lactating mammary gland: responsible for demonstrated toxicity for the heat and lactating mammary gland of the mouse

## CCCCC/C=C\C/C=C\CCCCCCCC(=O)CC(O)COC(C)=O (racemic) [mixture of isomers in equal proportions]
[6]; mouse
  activity in inducing widespread lactating mammary gland necrosis: less active than the R isomer
